Data on six compounds can be found in article PMC10650832, “Natural Phosphodiesterase-4 Inhibitors with Potential Anti-Inflammatory Activities from Millettia dielsiana” (Molecules, 2023).

One experiment addresses T1, Recombinant PDE4D (Homo sapiens, UniProt Q08499).
T1 construct: purchased Sigma Aldrich Co Ltd
Briefly: In vitro PDE4D enzymatic assay (cAMP dynamic 2 kit). Format: biochemical. To be noted: average of three determinations ± SEM. How it is done:
(§1) Recombinant PDE4B/D was from Sigma Aldrich Co Ltd. A PDE4B/D inhibitors assay was performed using a cAMP dynamic 2 kit. Serial dilutions of isolated compounds with DMSO (100-fold of final concentration) were prepared. Compound solutions were diluted 20-fold with cAMP assay buffer (50 mM Tris, 6 mM MgCl2, pH 7.5). Enzyme solution ([…] of 30 ng/mL or cAMP assay buffer for the control) and […] of isolated compounds (5-fold concentration of final concentration) were added to each well of the 96-well micro assay plate and pre-incubated at room temperature for 10 min. The enzymatic reactions were started by adding […] of cAMP solution (150 nM in cAMP assay buffer) or cAMP assay buffer and incubated at 37 °C for 30 min. The enzymatic reaction was terminated by placing the assay plate on ice. The concentration of cAMP was quantified by measurement of fluorescence intensity using Spectrophotometer Model-SP-2558 (Acton Research, Acton, MA, USA).

In a further experiment the target is T2, Recombinant PDE4B (Homo sapiens, UniProt Q07343).
T2 construct: purchased Sigma Aldrich Co Ltd
Nature of the experiment: In vitro PDE4B enzymatic assay (cAMP dynamic 2 kit). Format: biochemical. To be noted: average of three determinations ± SEM. The procedure: as §1

The test system of experiment [1] is NO production on RAW264.7 macrophages. Nature of the experiment: Inhibition of NO production in LPS-stimulated RAW264.7 cells (Griess). To be noted: highest concentration 50 µM. The experiment is classed as cell-based, murine. The procedure:
Cell RAW264.7 (ATCC, Manassas, VA, USA) was cultured for 48 h in DMEM (Dulbecco's Modified Eagle Medium) medium at 37 °C, 5% CO2, and 10% for fetal bovine serum (FBS). Then, the cell fluid was transferred to 96 wells with a density of 2.5 × 10^5 cells/well. Cells were stimulated with 2 μL lipopolysaccharide (LPS 0.1 mg/mL) for 24 h and supplemented with different concentrations of drugs/reagents. Cardamonin is used as a control (+) and DMSO as a control (-). The suspension of the cell was incubated with Griess reagent, NaNO2 at different concentrations to build the calibration curve. Measure the reaction response at λ = 570 nm. The inhibition rate of NO (%) production is determined by the formula: %UC = ([XTB]sample - [[…]) × 100 In which [XTB] is the average NO concentration calculated based on the standard NaNO2. […] Formazan crystalline metabolites are dissolved in dimethyl sulfoxide (DMSO, Sigma-Aldrich, Saint Louis, MO, USA) and measured optical density at λ = 540/720 nm on Infinite F50 device (Tecan, Männedorf, Switzerland).

Experiment [2] relates to NO production in RAW264.7 cells induced by LPS. On the set-up: method as in PMID 31470215. To be noted: read-out: IC50 of inhibition of NO production; cited from earlier work.
In a further experiment the test system is NO production. More on the design: method as in PMID 22902267. To be noted: read-out: IC50 of inhibition of NO production; cited from earlier work.

T2 sequence (Q07343 whole entry, species assumed): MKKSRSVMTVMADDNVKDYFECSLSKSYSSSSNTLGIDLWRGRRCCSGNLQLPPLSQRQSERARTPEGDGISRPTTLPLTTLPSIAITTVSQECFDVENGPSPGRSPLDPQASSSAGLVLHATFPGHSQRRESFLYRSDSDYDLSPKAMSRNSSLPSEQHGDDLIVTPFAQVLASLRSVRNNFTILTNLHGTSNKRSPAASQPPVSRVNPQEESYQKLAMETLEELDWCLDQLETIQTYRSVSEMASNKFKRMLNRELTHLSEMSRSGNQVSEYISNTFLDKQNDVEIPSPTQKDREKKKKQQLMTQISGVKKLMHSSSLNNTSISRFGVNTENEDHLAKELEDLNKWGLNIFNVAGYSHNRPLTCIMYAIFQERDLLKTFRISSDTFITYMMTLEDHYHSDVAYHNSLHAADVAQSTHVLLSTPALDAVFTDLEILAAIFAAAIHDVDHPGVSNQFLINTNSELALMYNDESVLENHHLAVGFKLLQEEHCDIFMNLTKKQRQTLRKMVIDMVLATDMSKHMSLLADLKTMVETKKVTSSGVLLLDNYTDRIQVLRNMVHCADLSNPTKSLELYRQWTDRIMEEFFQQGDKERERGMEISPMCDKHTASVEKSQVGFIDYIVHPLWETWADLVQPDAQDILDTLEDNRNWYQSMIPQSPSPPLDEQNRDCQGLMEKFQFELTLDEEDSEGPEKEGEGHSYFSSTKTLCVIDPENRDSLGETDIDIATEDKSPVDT
T1 sequence (Q08499 whole entry, species assumed): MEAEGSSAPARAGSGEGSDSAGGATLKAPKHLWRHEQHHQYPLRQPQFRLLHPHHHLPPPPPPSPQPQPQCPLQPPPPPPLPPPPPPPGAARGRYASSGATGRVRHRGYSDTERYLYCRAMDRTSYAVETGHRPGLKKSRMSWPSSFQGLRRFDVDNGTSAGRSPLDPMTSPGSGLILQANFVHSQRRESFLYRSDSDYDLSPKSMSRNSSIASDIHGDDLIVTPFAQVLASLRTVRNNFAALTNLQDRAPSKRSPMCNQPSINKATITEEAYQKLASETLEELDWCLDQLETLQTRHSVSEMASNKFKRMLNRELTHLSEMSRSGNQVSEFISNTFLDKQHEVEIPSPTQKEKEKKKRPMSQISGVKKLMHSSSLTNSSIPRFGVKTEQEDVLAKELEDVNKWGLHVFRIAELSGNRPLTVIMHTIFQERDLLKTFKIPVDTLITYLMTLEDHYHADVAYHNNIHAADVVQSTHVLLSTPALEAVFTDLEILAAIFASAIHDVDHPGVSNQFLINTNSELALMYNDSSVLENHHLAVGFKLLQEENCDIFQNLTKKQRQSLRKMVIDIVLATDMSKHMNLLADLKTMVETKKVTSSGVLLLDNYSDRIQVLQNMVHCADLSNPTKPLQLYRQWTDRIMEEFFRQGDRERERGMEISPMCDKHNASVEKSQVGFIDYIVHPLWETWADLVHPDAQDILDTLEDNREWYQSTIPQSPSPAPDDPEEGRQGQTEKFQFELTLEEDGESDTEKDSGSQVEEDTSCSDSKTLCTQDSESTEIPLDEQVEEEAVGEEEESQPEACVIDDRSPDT

For the compound “5,7,4′-trihydroxyisoflavone 7-O-β-D-apiofuranosyl-(1→6)-β-D-glucopyranoside [D50]”, the IC50 is 11.7 ± 1.3 µM at Recombinant PDE4D (read-out: IC50 of inhibition of PDE4D), 6.56 ± 0.7 µM at Recombinant PDE4B (read-out: IC50 of inhibition of PDE4B) and 5.4 ± 0.9 µM in experiment [1].

Regarding `C[C@H]1[C@H](C)CC[C@]2(C(=O)O)CC[C@]3(C)C(=CC[C@@H]4[C@@]5(C)CC[C@H](OC(=O)/C=C/c6ccc(O)cc6)C(C)(C)[C@@H]5CC[C@]43C)[C@H]12` (relative stereo) [D15, trans-3-O-p-hydroxycinnamoyl ursolic acid], at Recombinant PDE4D, the “IC50 of inhibition of PDE4D” value is reported as “did not show activity”. On Recombinant PDE4B, the “IC50 of inhibition of PDE4B” value was “did not show activity”.

As to `O=C(/C=C/c1ccc(O)cc1)c1ccc(O)cc1O` [D4, Isoliquiritigenin], in experiment [2], the IC50 is 31.2 µM.

Regarding `COc1ccc([C@H]2COc3cc(O)ccc3C2)c(O)c1` [D9, (3S)-Vestitol], the IC50 in experiment [2] was 16 µM.

As to `Oc1ccc([C@H]2CCc3ccc(O)cc3O2)cc1` [D10, Tupichinol C], in experiment [2], the IC50 was 38.4 µM.

Regarding `COc1cc(OC)c(-c2coc3c4c(c(OC)cc3c2=O)OC(C)(C)C=C4)cc1OC` [D30, Millesianin C], the IC50 with NO production was 1.37 µM.
